Structures can show the parent of a compound that is named as a salt. Bounds are passed on as bounds.

Assay [1] deals with T1, Rat IKK-2 (Rattus norvegicus, UniProt Q9QY78).
T1 sequence (Q9QY78 1-757): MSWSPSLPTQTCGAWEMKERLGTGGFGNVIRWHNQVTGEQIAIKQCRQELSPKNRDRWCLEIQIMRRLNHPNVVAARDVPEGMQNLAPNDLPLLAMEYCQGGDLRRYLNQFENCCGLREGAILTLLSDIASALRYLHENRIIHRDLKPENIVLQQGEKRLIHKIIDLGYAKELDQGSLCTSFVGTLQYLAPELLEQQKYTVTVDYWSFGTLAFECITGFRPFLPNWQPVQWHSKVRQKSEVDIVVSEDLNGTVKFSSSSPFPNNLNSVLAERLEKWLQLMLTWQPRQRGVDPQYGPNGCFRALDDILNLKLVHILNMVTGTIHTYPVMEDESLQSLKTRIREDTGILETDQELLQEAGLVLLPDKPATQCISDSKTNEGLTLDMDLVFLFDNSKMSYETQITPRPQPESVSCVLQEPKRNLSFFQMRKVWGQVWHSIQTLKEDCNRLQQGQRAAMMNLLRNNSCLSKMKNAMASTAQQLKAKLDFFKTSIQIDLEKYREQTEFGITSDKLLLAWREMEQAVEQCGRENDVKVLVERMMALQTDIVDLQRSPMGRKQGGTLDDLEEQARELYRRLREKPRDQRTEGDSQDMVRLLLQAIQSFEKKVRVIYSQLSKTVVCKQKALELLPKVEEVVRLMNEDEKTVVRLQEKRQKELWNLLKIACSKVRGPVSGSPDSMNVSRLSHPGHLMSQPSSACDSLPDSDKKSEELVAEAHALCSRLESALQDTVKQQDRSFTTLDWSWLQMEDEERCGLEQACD
The assay can be described thus: Rat IKK-2 enzyme assay. The conditions noted are these: read-out: IC50 (μM) rIKK-2. Type of assay: biochemical. On the procedure: Kinase activity was measured using a biotinylated […] peptide (Gly-Leu-Lys-Lys-Glu-Arg-Leu-Leu-Asp-Asp-Arg-His-Asp-Ser32-Gly-Leu-Asp-Ser36-Met-Lys-Asp-Glu-Glu) (American Peptide Co.). 20 μL of the standard reaction mixture contained 5 μM biotinylated IκBα peptide, 0.1 μCi/reaction [γ-^33P] ATP (Amersham) (about 1×10^5 cpm), 1 μM ATP (Sigma), 1 mM DTT (Sigma), 2 mM MgCl2 (Sigma), 2 mM MnCl2 (Sigma), 10 mM NaF (Sigma), 25 mM Hepes (Sigma) buffer, pH. 7.6 and 20 μL enzyme solution (50 nM/rxn or 200 ng/rxn) and 10 μL inhibitor in a final volume of 50 μL. After incubation at 25° C. for 60 min, 150 μL resin was added to each well to stop the reaction. Resin was mixed and allowed to settle for 1 h and 50 μL of supernatant was removed to a Micolite 2 flat bottom plate (Dynex). 150 μL of scintillation fluid (Microscint 40) (Packard) was added to each well. Incorporation of [γ-^33P] ATP was measured using a Top-Count NXT (Packard).

Assay [2] addresses T2, human IKK-2 (rhIKK-2 homodimer) (Homo sapiens, UniProt O14920).
T2 construct: FLAG (DYKDDDDKD) (C); made in house; host or cells: insect cells (baculovirus, pFastBac)
T2 sequence (O14920 1-756): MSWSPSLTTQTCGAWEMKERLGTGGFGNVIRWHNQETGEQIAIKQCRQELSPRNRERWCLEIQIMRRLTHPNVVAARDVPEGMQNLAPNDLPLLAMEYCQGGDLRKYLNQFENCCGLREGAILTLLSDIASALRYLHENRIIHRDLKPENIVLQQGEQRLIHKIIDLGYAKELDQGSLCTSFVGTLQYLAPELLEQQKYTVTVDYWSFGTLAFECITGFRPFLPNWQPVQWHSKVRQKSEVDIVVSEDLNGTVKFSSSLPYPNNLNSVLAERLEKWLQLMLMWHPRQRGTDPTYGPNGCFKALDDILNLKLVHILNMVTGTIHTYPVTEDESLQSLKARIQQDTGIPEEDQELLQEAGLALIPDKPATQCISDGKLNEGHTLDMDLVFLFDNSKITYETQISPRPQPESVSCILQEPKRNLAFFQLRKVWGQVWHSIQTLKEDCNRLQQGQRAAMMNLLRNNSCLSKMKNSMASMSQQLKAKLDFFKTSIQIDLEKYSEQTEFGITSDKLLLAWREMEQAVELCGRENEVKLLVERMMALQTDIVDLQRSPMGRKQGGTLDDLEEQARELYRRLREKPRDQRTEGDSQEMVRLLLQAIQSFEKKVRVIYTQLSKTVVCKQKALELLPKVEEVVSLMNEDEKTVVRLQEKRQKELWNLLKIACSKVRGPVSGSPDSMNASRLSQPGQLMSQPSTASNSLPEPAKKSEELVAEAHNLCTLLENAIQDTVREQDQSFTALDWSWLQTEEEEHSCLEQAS
The assay can be described thus: IKK-2 Resin Enzyme Assay (Human IKK-2 Enzyme Assay). Type of assay: biochemical. The conditions noted are these: human IKK-2, resin enzyme assay; read-out: IC50 (μM) hIKK-2. In short, it runs like this: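 C-terminally FLAG-tagged human IKK-2 homodimer, baculovirus-expressed in insect cells and anti-FLAG purified. Reaction mix: 5 μM biotinylated IκBα peptide (Ser32/Ser36 region), 1 μM ATP with [γ-33P]ATP, 2 mM MgCl2, 2 mM MnCl2, 10 mM NaF, 1 mM DTT, 25 mM HEPES pH 7.6. Incubated 30 min at 25 °C; IC50 derived.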

On to `CCCOc1ccc(-n2cc(NC(N)=O)c(C(N)=O)n2)cc1` [Example 332, 4-[(aminocarbonyl)amino]-1-(4-propoxyphenyl)-1H-pyrazole-3-carboxamide], for which the IC50 in assay [1] stood at 1.08 µM.
On the same count and under the same terms, the value for `Cc1cc(O)ccc1-c1ccc(-n2cc(NC(N)=O)c(C(N)=O)n2)cc1C` [Example 309, 1-(4′-hydroxy-2,2′-dimethyl-biphenyl-4-yl)-4-ureido-1H-pyrazole-3-carboxylic acid amide] was 0.086 µM.
Same read-out and setting: the value for `Cc1cc(-n2cc(NC(N)=O)c(C(N)=O)n2)ccc1F` [Example 304, 4-[(aminocarbonyl)amino]-1-(4-fluoro-3-methylphenyl)-1H-pyrazole-3-carboxamide] was 0.547 µM; that for `CCOc1cc(-n2cc(NC(N)=O)c(C(N)=O)n2)ccc1-c1ccc(OCC(N)=O)cc1` [Example 275, 4-[(aminocarbonyl)amino]-1-[4′-(2-amino-2-oxoethoxy)-2-ethoxy-1,1′-biphenyl-4-yl]-1H-pyrazole-3-carboxamide] was 10.8 µM.
The same measure, in the same setting: in the case of `COc1ccc(-n2cc(NC(N)=O)c(C(N)=O)n2)cc1OC` [Example 330, 4-[(aminocarbonyl)amino]-1-(3,4-dimethoxyphenyl)-1H-pyrazole-3-carboxamide] it was 1.78 µM.
Consider `NC(=O)Nc1cn(-c2ccc(-c3ccc(O)cc3)c(Cl)c2)nc1C(N)=O` [Example 272, 4-[(aminocarbonyl)amino]-1-(2-chloro-4′-hydroxy-1,1′-biphenyl-4-yl)-1H-pyrazole-3-carboxamide], for which the IC50 in assay [1] amounted to 0.167 µM.
The same measure, in the same setting: the value for `NC(=O)Nc1cn(-c2ccc(Sc3cccc(Br)c3)cc2)nc1C(N)=O` [Example 293, 1-(1-(4-(3-bromophenylthio)phenyl)-3-carbamoyl-1H-pyrazol-4-yl)urea] was 4.82 µM.
Same read-out and setting: the value for `NC(=O)COc1ccccc1-c1ccc(-n2cc(NC(N)=O)c(C(N)=O)n2)cc1F` [Example 266, 4-[(aminocarbonyl)amino]-1-[2′-(2-amino-2-oxoethoxy)-2-fluoro-1,1′-biphenyl-4-yl]-1H-pyrazole-3-carboxamide] was 0.392 µM.
In the case of `COc1ccc(F)cc1-c1ccc(-n2cc(NC(N)=O)c(C(N)=O)n2)cc1F` [Example 269, 4-[(aminocarbonyl)amino]-1-(2,5′-difluoro-2′-methoxy-1,1′-biphenyl-4-yl)-1H-pyrazole-3-carboxamide], in assay [1], the IC50 was found to be 0.781 µM.
On the same count and under the same terms, in the case of `NC(=O)Nc1cn(-c2ccc(OC(F)(F)F)cc2)nc1C(N)=O` [Example 328, 4-[(aminocarbonyl)amino]-1-[4-(trifluoromethoxy)phenyl]-1H-pyrazole-3-carboxamide] it was 0.446 µM.
Turning to `NC(=O)Nc1cn(-c2ccc(-c3ccc(O)c(F)c3)c(F)c2)nc1C(N)=O` [Example 265, 4-[(aminocarbonyl)amino]-1-(2,3′-difluoro-4′-hydroxy-1,1′-biphenyl-4-yl)-1H-pyrazole-3-carboxamide], in assay [1], the IC50 was 6.16 µM.
As to `CCN(CC)C(=O)COc1cccc(-c2ccc(-n3cc(NC(N)=O)c(C(N)=O)n3)cc2)c1` [Example 336, 4-[(aminocarbonyl)amino]-1-{3′-[2-(diethylamino)-2-oxoethoxy]-1,1′-biphenyl-4-yl}-1H-pyrazole-3-carboxamide], in assay [2], the IC50 was determined as 0.42 µM.
Same read-out and setting: the value for `CC(C)c1ccc(-n2cc(NC(N)=O)c(C(N)=O)n2)cc1` [Example 216, 4-[(aminocarbonyl)amino]-1-(4-isopropylphenyl)-1H-pyrazole-3-carboxamide] was 0.159 µM.
Turning to `NC(=O)Nc1cn(-c2ccc(-c3ccc(C(=O)NCc4ccccc4)cc3)cc2)nc1C(N)=O` [Example 35, 4-[(aminocarbonyl)amino]-1-{4′-[(benzylamino)carbonyl]-1,1′-biphenyl-4-yl}-1H-pyrazole-3-carboxamide], in assay [2], the concentration for half-maximal inhibition (IC50) stood at 1.33 µM.
Same read-out and setting: the value for `NC(=O)Nc1cn(-c2ccc(Sc3ccccc3F)c(Cl)c2)nc1C(N)=O` [Example 270, 4-[(aminocarbonyl)amino]-1-{3-chloro-4-[(2-fluorophenyl)thio]phenyl}-1H-pyrazole-3-carboxamide] was 3.7 µM; that for `NC(=O)Nc1cn(-c2ccc(S(=O)(=O)c3ccc(F)cc3)c(Cl)c2)nc1C(N)=O` [Example 222, 4-[(aminocarbonyl)amino]-1-{3-chloro-4-[(4-fluorophenyl)sulfonyl]phenyl}-1H-pyrazole-3-carboxamide] was over 20 µM.
Same read-out and setting: the value for `NC(=O)Nc1cn(-c2ccc([S+]([O-])c3ccccc3O)cc2)nc1C(N)=O` (stereo not drawn) [Example 285, 1-(1-(4-(2-hydroxyphenylsulfinyl)phenyl)-3-carbamoyl-1H-pyrazol-4-yl)urea] was 0.578 µM; that for `NC(=O)Nc1cn(-c2ccc(-c3cccc(O)c3)cc2)nc1C(N)=O` [Example 22, 4-[(aminocarbonyl)amino]-1-(3′-hydroxy-1,1′-biphenyl-4-yl)-1H-pyrazole-3-carboxamide] was 1.2 µM; that for `NC(=O)Nc1cn(-c2ccc([S+]([O-])c3cccc(F)c3)cc2)nc1C(N)=O` (stereo not drawn) [Example 201, 1-(1-(4-(3-fluorophenylsulfinyl)phenyl)-3-carbamoyl-1H-pyrazol-4-yl)urea] was 0.532 µM.
Still for that read-out and setting: the value for `NC(=O)Nc1cn(-c2ccc(-c3ccc(F)cc3O)c(F)c2)nc1C(N)=O` [Example 262, 4-[(aminocarbonyl)amino]-1-(2,4′-difluoro-2′-hydroxy-1,1′-biphenyl-4-yl)-1H-pyrazole-3-carboxamide] was 0.842 µM; that for `CC(=O)c1ccc(-c2cccc(-n3cc(NC(N)=O)c(C(N)=O)n3)c2)cc1` [Example 53, 1-(4′-acetyl-1,1′-biphenyl-3-yl)-4-[(aminocarbonyl)amino]-1H-pyrazole-3-carboxamide] was 4.07 µM; that for `NC(=O)Nc1cn(-c2ccc(-c3ccccc3O)cc2)nc1C(N)=O` [Example 23, 4-[(aminocarbonyl)amino]-1-(2′-hydroxy-1,1′-biphenyl-4-yl)-1H-pyrazole-3-carboxamide] was 1.64 µM.
As for `NC(=O)Nc1cn(-c2ccc(-c3cccc(C(=O)O)c3)cc2)nc1C(N)=O` [Example 96, 4′-{3-(aminocarbonyl)-4-[(aminocarbonyl)amino]-1H-pyrazol-1-yl}-1,1′-biphenyl-3-carboxylic acid], the IC50 in assay [2] was found to be 1.45 µM.
On the same count and under the same terms, the value for `COc1ccc(-n2cc(NC(N)=O)c(C(N)=O)n2)cc1` [Example 10, 4-[(aminocarbonyl)amino]-1-(4-methoxyphenyl)-1H-pyrazole-3-carboxamide trifluoroacetate] was 2.91 µM.

Source of the values: US20050197338A1, “Substituted pyrazole urea compounds for the treatment of inflammation” (priority 2003, published 2005).
